Laboratory results reported in the supplement of paper PMC10307832.

Tests used:
Assay in all cases: relative viability (nuclei count vs DMSO), 5 days (fraction); higher = more cells survive
[1] = compound: CC1CC(=O)N(C2=CN=C(N=C2N1C3CCCC3)NC4=C(C=C(C=C4)C(=O)NC5CCN(CC5)C)OC)C [NPK76-II-72-1] + O=C(c1cc(Cc2n[nH]c(=O)c3ccccc23)ccc1F)N1CCN(C(=O)C2CC2)CC1 [Olaparib] (partner 8 µM)
Outline: (§1)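 Each reported value is a median over duplicate plates. It expresses relative viability: treated-well nuclei count divided by vehicle-well nuclei count. Lung cancer cell lines in 1536-well plates were dosed by pin tool a day after seeding, alone with one drug or with a fixed anchor-drug dose plus five library-drug doses (not always all listed) in √10 steps, and nuclei were counted after 5 days.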

[2] = compound: CC1CC(=O)N(C2=CN=C(N=C2N1C3CCCC3)NC4=C(C=C(C=C4)C(=O)NC5CCN(CC5)C)OC)C [NPK76-II-72-1] + Nc1nc2[nH]cc(CCc3ccc(C(=O)N[C@@H](CCC(=O)O)C(=O)O)cc3)c2c(=O)[nH]1 [Pemetrexed] (partner 0.2 µM)
Outline: as §1

[3] = compound: CC[C@@H]1C(=O)N(C)c2cnc(Nc3ccc(C(=O)NC4CCN(C)CC4)cc3OC)nc2N1C1CCCC1 [BI-2536] + O=C(CCCCCCC(=O)Nc1ccccc1)NO [Vorinostat] (partner 1 µM)
Outline: as §1

[4] = compound: CC[C@@H]1C(=O)N(C)c2cnc(Nc3ccc(C(=O)NC4CCN(C)CC4)cc3OC)nc2N1C1CCCC1 [BI-2536] + CS(=O)(=O)N1CCN(Cc2cc3nc(-c4cccc5[nH]ncc45)nc(N4CCOCC4)c3s2)CC1 [Pictilisib] (partner 1 µM)
Outline: as §1

Cell Line	relative viability ([1]; first compound 0.01 µM)	relative viability ([1]; first compound 0.03162 µM)	relative viability ([1]; first compound 0.1 µM)	relative viability ([1]; first compound 0.3162 µM)	relative viability ([1]; first compound 1 µM)	relative viability ([2]; first compound 0.01 µM)	relative viability ([2]; first compound 0.03162 µM)	relative viability ([2]; first compound 0.1 µM)	relative viability ([2]; first compound 0.3162 µM)	relative viability ([2]; first compound 1 µM)	relative viability ([3]; first compound 0.01 µM)	relative viability ([3]; first compound 0.03162 µM)	relative viability ([3]; first compound 0.1 µM)	relative viability ([3]; first compound 0.3162 µM)	relative viability ([3]; first compound 1 µM)	relative viability ([4]; first compound 0.01 µM)	relative viability ([4]; first compound 0.03162 µM)	relative viability ([4]; first compound 0.1 µM)	relative viability ([4]; first compound 0.3162 µM)	relative viability ([4]; first compound 1 µM)
201T	0.792	0.826	0.836	0.851	0.839	0.344	0.319	0.338	0.324	0.333	0.967	0.98	0.841	0.254	0.31	0.686	0.618	0.586	0.253	0.308
A549	0.215	0.387	0.356	0.269	0.417	–	–	–	–	–	–	–	–	–	–	0.46	0.461	0.0515	0.0559	0.0422
A-427	0.644	0.772	0.74	0.653	0.869	0.903	0.991	0.978	0.965	1.01	0.871	0.859	0.296	0.19	0.165	0.776	0.707	0.606	0.0766	0.122
ABC-1	0.606	0.537	0.764	0.803	1.34	–	–	–	–	–	1.22	1.06	0.613	0.418	0.51	0.81	0.609	0.214	0.31	0.243
BEN	1.01	1.14	1.04	1.03	1	0.794	0.683	0.739	0.755	0.934	0.574	0.452	0.412	0.386	0.38	0.574	0.48	0.389	0.235	0.209
CAL-12T	0.724	0.829	0.726	0.741	0.825	0.927	1.1	1.14	0.943	1.5	0.817	0.695	0.278	0.147	0.129	0.536	0.401	0.178	0.181	0.141
COR-L23	0.321	0.38	0.34	0.335	0.396	0.207	0.19	0.195	0.193	0.211	0.438	0.281	0.135	0.0945	0.0882	0.636	0.593	0.101	0.0743	0.0991
COR-L 105	0.586	0.795	0.46	0.683	0.794	1.06	1.07	0.992	1.02	1.12	0.959	0.79	0.52	0.349	0.334	0.437	0.358	0.23	0.237	0.216
Calu-6	0.561	0.625	0.65	0.62	0.559	–	–	–	–	–	–	–	–	–	–	0.894	0.396	0.107	0.0926	0.0965
ChaGo-K-1	0.417	0.401	0.392	0.418	0.448	0.243	0.259	0.261	0.246	0.257	0.764	0.749	0.265	0.182	0.196	0.643	0.535	0.243	0.275	0.354
EBC-1	0.697	0.734	0.712	0.7	0.812	–	–	–	–	–	–	–	–	–	–	0.35	0.232	0.147	0.158	0.119
EKVX	0.755	0.898	0.735	–	1.02	0.358	0.447	0.435	–	0.387	0.875	0.729	0.676	0.407	0.208	0.47	0.483	0.444	0.14	0.123
EMC-BAC-2	0.468	0.506	0.51	0.486	0.541	0.451	0.497	0.446	0.451	0.453	0.468	0.416	0.171	0.144	0.131	0.502	0.559	0.305	0.162	0.163
EPLC-272H	0.831	0.825	0.782	0.732	0.765	0.338	0.303	0.303	0.311	0.335	0.339	0.126	0.0766	0.112	0.0972	0.343	0.256	–	0.233	0.151
H3255	0.531	0.552	0.561	0.483	0.592	0.565	0.517	0.604	0.446	0.602	0.736	0.786	0.447	0.519	0.306	0.503	0.503	0.305	0.176	0.182
HARA	0.888	0.756	0.76	–	0.872	0.293	0.28	0.256	–	0.195	0.626	0.511	0.422	0.0897	0.108	0.372	0.535	0.147	0.072	0.0745
HCC-15	0.679	0.766	0.639	0.689	0.741	0.214	0.23	0.219	0.225	0.235	0.675	0.769	0.615	0.137	0.141	0.746	0.795	0.365	0.124	0.117
HCC-44	0.955	1	0.946	0.935	0.989	0.65	0.689	0.613	0.619	0.684	1.19	1.01	0.847	0.346	0.278	0.68	0.769	0.257	0.0696	0.0951
